The record followed here is ChEMBL document CHEMBL1132159, “[3H]Azidodantrolene: synthesis and use in identification of a putative skeletal muscle dantrolene binding site in sarcoplasmic reticulum” (J Med Chem, 1999).

The term Kd denotes the constant that tells how readily two partners part at equilibrium. A lower Kd goes with a tighter complex. Broadly, the Ki is a measure of affinity in units of concentration, obtained from inhibition or displacement.

Test [1] is described as follows: Binding affinity against porcine sarcoplasmic reticulum.
Test [2] can be described thus: The compound was tested for binding affinity against porcine sarcoplasmic reticulum(SR) membrane in the absence or presence of dantrolene from porcine sarcoplasmic reticulum.
Test [3] can be described thus: The compound was tested for binding affinity against porcine sarcoplasmic reticulum(SR) membrane in the absence or presence of atropine.
Test [4] in a line: The compound was tested for binding affinity against porcine sarcoplasmic reticulum(SR) membrane in the absence or presence of azumolene.
The nature of test [5]: The compound was tested for binding affinity against porcine sarcoplasmic reticulum.
The nature of test [6]: The compound was tested for binding affinity in the absence of beta, gamma- methyleneadenosine 5'-triphosphate(AMP-PCP) in porcine sarcoplasmic reticulum.
The nature of test [7]: The compound was tested for binding affinity against porcine sarcoplasmic reticulum(SR) membrane.
Test [8] is described as follows: The compound was tested for binding affinity in a buffer containing 500 uM-3 mM beta,gamma-methyleneadenosine 5'-triphosphate(AMP-PCP) in porcine sarcoplasmic reticulum.

In test [1], `O=C1CN(/N=C/c2ccc(-c3ccc([N+](=O)[O-])cc3)o2)C(=O)N1` [DANTROLENE SODIUM] displayed a Kd of 300 nM.
As to `[3H]/C(=N\N1CC(=O)[N-]C1=O)c1ccc(-c2ccc(N=[N+]=[N-])cc2)o1.[Na+]` [[3H]-AZIDODANTROLINE], the inhibitory constant (Ki) is 20000 nM in test [2], 100000 nM in test [3], 100000 nM in test [4] and 175 nM in test [5].
As to `[3H]/C(=N\N1CC(=O)[N-]C1=O)c1ccc(-c2ccc([N+](=O)[O-])cc2)o1.[Na+]`, the equilibrium dissociation constant (Kd) came to 275 nM in test [6] and 210 nM in test [8]. Further, the affinity in test [7], expressed as Ki, was 1500 nM.
